Consider one compound from patent US20230277491A1, “PHARMACEUTICAL COMBINATION COMPRISING GLYCOLIC ACID AND L-ALANINE” (priority 2020, published 2023).

Structures are written as SMILES.

Data set [1] has as its system DJ-1 RNAi depleted HeLa cells. The note with it: DJ-1 RNAi depleted HeLa cells or paraquat challenge; cited from earlier work.
A further data set relates to dopaminergic neurons. As to conditions: after DJ-1 knock-out or paraquat treatment; cited from earlier work.
For a further data set, the system named is patients with ALS. As to the kind of experiment: Individualised clinical trials in ALS patients: therapeutic effect (creatine kinase, gripping force, muscle strength). As to conditions: human patients, in some cases.
For data set [2] the following is noted: male Wistar rats; cited from earlier work.
The test system of data set [3] is HeLa cells treated with siRNA against PARK-7/DJ-1. In words: Calcium imaging on HeLa cells during mitosis after PARK-7/DJ-1 down-regulation. The note with it: PARK-7/DJ-1 down-regulated HeLa cells, 5 mM, FIG. 17. Type of data set: cell-based. The protocol: HeLa cells were loaded with Fluo-4 AM, a dye used to measure calcium concentration in living cells, as described by the manufacturer and recorded for 4 hours. Graphics show the variations in intracellular calcium concentration during mitosis in WT and cells treated with siRNA against PARK-7/DJ-1 to down-regulate this gene.
HeLa-Kyoto cells stably expressing histone H2B-mCherry and mouse DJ-1 were used. Cells were maintained in DMEM supplemented with 10% fetal bovine serum (FBS), 2 mM GlutaMAX, 100 unit/ml penicillin, 100 μg/ml streptomycin. For esiRNA treatment, cells were plated at a density of 15.000 cells/well in an ibidi 8 well chamber (Cat. no 80826, ibidi, Germany, EU), transfected with different esiRNAs (RLUC as empty vector, hPARK-7 and hKIF11 as positive control) (all esiRNAs were obtained from Eupheria, Germany, EU), and left for 72 hours before performing calcium imaging. esiRNA transfection was performed as follows. esiRNA was diluted in distilled water to a concentration of 20 ng/μl. For each well, two solutions were made: 1. […]
We observed that the Fluo-4 AM dye started to leak out of the cells into the medium after 1.5 hours of imaging. […] Images were analyzed using FIJI Image Analysis Freeware (https://fiji.sc). MFI of the Fluo-4 AM signal within the cell was determined using manually selected ROIs covering the whole cell area for each time-point. […]

The test system of a further data set is PARK-7 −/− HeLa cells. As to the kind of experiment: Cell growth of PARK-7 −/− HeLa cells. Type of data set: cell-based, human. The note with it: 5 mM, FIG. 16. The protocol:
GA enhances cell proliferation in PARK-7 −/− HeLa cells. […] Knocking-down PARK-7 with CRISP/Cas-9 leads to a reduced cell proliferation when compared to WT cells. […] Treatment with GA increases cell proliferation in HeLa cells.
Cell growth was determined by two different methods. The first method (WST1-Assay) was used to analyze cell growth at different time points using the same plates: 500 cells of 8 different PARK7 KO clones and HeLa Kyoto wild type cells were seeded in 96 well plates (6 wells/line). For each time point (0 h, 48 h, 122 h, and 144 h), WST1 was added to the cells according to the manufacturers instructions and incubated for 30 min at 37° C. Absorbance was measured at 450 nm and 620 nm using an EnVision Plate Reader (PerkinElmer).
The second method was used to analyze the rescue effect of GA and DL. Briefly, HeLa cells were seeded and treated with medium containing distilled water, 5 mM GA, or 5 mM DL. 48 hours later, the number of living cells was calculated with the help of an automated cell counter (ThermoFischer, USA).
HeLa-Kyoto PARK7 KO clones had been kindly provided by Martin Stewart (Koch Institute, MIT, Cambridge, USA). Briefly, cells were electroporated with the NEON device (Invitrogen) using a sgRNA-Cas9-NLS complex targeting human PARK7 at exon 1. […]

The subject of a further data set is HeLa cells. In words: Intracellular calcium, Fluo4-AM loaded HeLa cells, fluorescent plate reader. Type of data set: cell-based. As to conditions: FIG. 12. The source says: HeLa cells were loaded with Fluo4-AM and fluorescence was monitored with the help of a fluorescent plate reader. Values are normalized to the initial fluorescent value.
The conditions of data set [4]: human, in vivo, 15 weeks. The source says:
Potential side effects were closely monitored.

The conditions of data set [5]: human, in vivo. The protocol:
Preliminary pharmacokinetic analyses were undertaken in order to determine whether the GA and DL administered to the patients orally were absorbed into the blood stream and into the CSF. […] As can also be observed, DL levels reach 140 mg/L in the blood 1-hour post-administration and are reduced to approx. 20 mg/I after 2- or 3-hours post-administration.
As can be observed in FIG. 9, GA levels are approximately 20 mg/I in the CSF 1-hour post-administration. As can also be observed, DL levels are approximately 5 mg/I in the CSF 1-hour post-administration. 100 mg/kg GA and 100 mg/kg DL was administered in patients to obtain the pharmacokinetic data.

Description for patients with ALS: Gripping force measured in kilograms with the help of a Digital Hand Dynamometer once a week to every two weeks.
Evolution of the muscle strength on the right arm was measured once a week to every two weeks using the Janda Muscle Strength Scale.
Patients with ALS were recruited for the study and agreed to all legal regulations surrounding the curative attempt. Potential side effects were closely monitored. Liver and kidney values were checked once a week (1 day after dosing), in order to monitor whether any unwanted side effects were observed. To test the therapeutic effect, the evolution of the ALS score and strength evolution were measured over time.
All patients also received 6 grams of L-Alanine per day.
The above-mentioned treatment regime was conducted in 4 patients, either with FUS, TARDBP or SOD-1 mutations underlying their ALS. […] The patients were treated between 4 months and 17 months.

Take `O=C(O)CO` [GA, 2-hydroxyethanoic acid]: the mitochondrial potential entry in [1] is reported as “maintain or rescue mitochondrial potential”. Further, in the data set with dopaminergic neurons, the “survival of dopaminergic neurons” value was “rescued the survival of dopaminergic neurons”. For the same compound, the “GA dose at which efficacious doses were first observed” value in the data set with patients with ALS was “above 70 mg/kg”. Besides, the “kidney findings after administration” value in [2] is “formation of hyperoxaluria and calcium oxalate precipitates”. The “calcium influx during mitosis” value in data set [3] is given as “able to rescue this phenotype”. The “cell proliferation (number of cells after 48 hours)” value in the data set with PARK-7 −/− HeLa cells is on record as “rescues cell proliferation defects”. The “intracellular calcium (Fluo4-AM fluorescence normalized to initial value)” value in the data set on HeLa cells is listed as “reduce intracellular calcium”. Also, in [4], the “GA dose at which reactive instant feces deposition was observed” value is reported as “above 120 mg/kg” and the “GA dose leading to reactive instant feces deposition” value was “higher than 150 mg/kg”. For the same compound, in [5], the “GA dose at which the concentration of GA in the blood is too low” value is given as “lower than 50 mg/kg”, the “concentration in the CSF” value is listed as “ca. 0.33 mM”, the “concentration in the blood” value was 2000 µM and the “concentration in the cerebrospinal fluid relative to blood (lower)” value is “about 1:6”.
